Experiments:
Candida albicans = experiment: Antimicrobial screening by agar dilution, Candida albicans; type: cell-based; conditions: after 10, 20, 40 and 60 minutes at all dilutions 1:100, 1:200, 1:400, 1:800
Method: (§1) The antibacterial properties of the synthesized compound 2-(2-ethoxyethoxy)-6-(4-hydroxyphenyl)-4-(4-methylphenyl)nicotinonitrile were studied by the method of agar dilution. Test solutions of each compound was prepared in concentration of 1% using dimethylformamide as a solvent then they are diluted in physiological solution to obtain the final experimental dilutions 1: 100, 1:200, 1:400, 1:800. The effect of these substances are compared with furacillin in a controllable study. The testing microbes used were gram positive bacteria Staphylococcus aureus, gram negative bacteria Pseudomonas aeruginosa and Escherichia coli and Candida albicans fungus. The experiments used for this survey were meat-pentonlu agar (EPA) for cultivation of bacteria and Saburo environment for the fungus. Each experiment used 1 mL of test solution on each plate […]. Two drops of emulsified with microbes feel were added. All experimental samples were taken from the agar after 10, 20, 40, 60 minutes in the environment on the basis of Patrk planted. The bacteria were cultivated at a temperature of 37° C. for 1 day and the mushroom was kept in a thermostat for 2 hours at a temperature of 28° C. Then results were checked.

Staphylococcus aureus = experiment: Antimicrobial screening by agar dilution, Staphylococcus aureus; type: cell-based; conditions: after 10, 20, 40 and 60 minutes at all dilutions 1:100, 1:200, 1:400, 1:800
Method: as §1

Pseudomonas aeruginosa = experiment: Antimicrobial screening by agar dilution, Pseudomonas aeruginosa; type: cell-based; conditions: after 10, 20, 40 and 60 minutes at all dilutions 1:100, 1:200, 1:400, 1:800
Method: as §1

Escherichia coli = experiment: Antimicrobial screening by agar dilution, Escherichia coli; type: cell-based; conditions: after 10, 20, 40 and 60 minutes at all dilutions 1:100, 1:200, 1:400, 1:800
Method: as §1

melting point: 175 to 177 °C
Compound: CCOCCOc1nc(-c2ccc(O)cc2)cc(-c2ccc(C)cc2)c1C#N [2-(2-ethoxyethoxy)-6-(4-hydroxyphenyl)-4-(4-methylphenyl)nicotinonitrile]
inhibition activity (summary in words) (Candida albicans): highest inhibition activity | inhibition activity (summary in words) (Staphylococcus aureus): highest inhibition activity | inhibition activity (summary in words) (Pseudomonas aeruginosa): highest inhibition activity | inhibition activity (summary in words) (Escherichia coli): highest inhibition activity
